Laboratory results taken from patent US6201116A, “Halide indicators” (The Regents of the University of California, priority 1999, dated 2001).

Experiments:
[1] = system: cells; test: Photobleaching in cells; format: cell-based
Experimental: (§1) Fluorescence microscopy. Fluorescence microscopy measurements were performed as described previously (Chao et al., 1989). Briefly, coverglasses were mounted in a 0.5 ml perfusion chamber in which the cell-free glass surface made contact with an oil immersion objective (Nikon ×40 magnification, numerical aperture[NA] 1.3). Cell fluorescence was excited at 365±10 nm (SPQ) or 420 nm±10 nm (LZQ and LMQ). Emitted fluorescence was detected by a photomultiplier in a Nikon inverted epifluorescence microscope using a 410 nm dichroic mirror and 420 nm barrier filter (SPQ) or a 455 nm dichroic mirror and 500 nm barrier filter (LZQ). For cells colabeled with SPQ and LZQ, SPQ fluorescence was excited at 365±10 nm and detected using a 410 nm dichroic mirror and 455±30 nm interference filter. Confocal fluorescence micrographs were obtained using a Nipkow wheel confocal microscope and cooled CCD camera detector using a ×60 oil immersion objective (Nikon, NA 1.4). LZQ-labeled cells were viewed using a fluorescein filter set (excitation 480±15 nm, emission 520±20 nm).
(§2) A time course of LZQ fluorescence during perfusion with physiological saline at 23° C. was generated. A small group of 20-30 cells was illuminated continuously and fluorescence was detected by a photomultiplier using an ×40, 1.3 NA objective. Cellular fluorescence decreased slowly at a rate of 2.5% per hour. To determine the relative contributions of indicator leakage vs. photobleaching to the slow decline in fluorescence, the perfused cells were illuminated intermittently. […] Background fluorescence (in non-labeled cells) was generally <5% of the fluorescence of LZQ-labeled cells.

[2] = system: cells; test: Toxicity in assays of cell growth; format: cell-based; details: 2 mM in culture medium for 72 h
Experimental: LZQ and LMQ were loaded into cells efficiently by hypotonic shock or passive incubation. […] As was found for SPQ, LZQ and LMQ were non-toxic to cells in assays of cell growth (2 mM in culture medium for 72 h).

[3] = system: cells; test: Fluorescence lifetime in cells (frequency-domain microfluorimetry); format: cell-based
Experimental: Time resolved fluorescence measurements. Fluorescence lifetime and anisotropy decay measurements were carried out in the frequency domain by cuvette fluorimetry using a Fourier transform fluorimeter (48000 MHF, SLM Instruments, Urbana, Ill.) or by fluorescence microscopy using epifluorescence microscope optics in place of the cuvette compartment (Verkman et al., 1991). For microscopy measurements, impulse-modulated vertically polarized light (442 nm, He--Cd laser 35 mwatts) was reflected onto the sample by a 510 nm dichroic mirror and objective lens; emitted fluorescence was filtered by a 515 nm barrier filter and passed through a rotatable analyzing calcite polarizer. […]
Analysis of lifetime and time-resolved anisotropy was performed by a comparative approach. […] Median phase and modulation values for paired data were analyzed by nonlinear least-squares for determination of lifetimes and rotational correlation times.
A calibration study was done to determine the intracellular sensitivity of LZQ to I^-. […] LZQ fluorescence changed reversibly in response to changes in solution I^-. […] Fluorescence lifetime analysis was done to determine whether LZQ fluorescence is quenched in cells by substances other than I^-. Nanosecond lifetimes were measured by frequency-domain microfluorimetry. […]

[4] = system: 3T3 fibroblasts expressing CFTR; test: Intracellular sensitivity to I^-; format: cell-based, mouse
Experimental: as §1, with “LZQ-labeled cells were viewed using a fluorescein filter set (excitation 480±15 nm, emission 520±20 nm).” left out
as §2, with “hour.” for “hour. To determine the relative contributions of indicator leakage vs. photobleaching to the slow decline in fluorescence, the perfused cells were illuminated intermittently.”, “cells. […]” for “cells.”

[5] = Fluorescence lifetime in water; format: physicochemical
Experimental: Time resolved fluorescence measurements. Fluorescence lifetime and anisotropy decay measurements were carried out in the frequency domain by cuvette fluorimetry using a Fourier transform fluorimeter (48000 MHF, SLM Instruments, Urbana, Ill.) or by fluorescence microscopy using epifluorescence microscope optics in place of the cuvette compartment (Verkman et al., 1991). For microscopy measurements, impulse-modulated vertically polarized light (442 nm, He--Cd laser 35 mwatts) was reflected onto the sample by a 510 nm dichroic mirror and objective lens; emitted fluorescence was filtered by a 515 nm barrier filter and passed through a rotatable analyzing calcite polarizer. In some experiments, a biconcave lens was introduced just in front of the dichroic mirror to diverge beam diameter in the focal plane to […].
Analysis of lifetime and time-resolved anisotropy was performed by a comparative approach. Generally six pairs of measurements (each acquisition 8 s) were obtained, comparing sample and reference (fluorescein in 0.1 N NaOH, lifetime 4.0 ns) for measurement of lifetime, and parallel and perpendicular orientations of the emission polarizer for measurement of anisotropy decay. […] Median phase and modulation values for paired data were analyzed by nonlinear least-squares for determination of lifetimes and rotational correlation times.

[6] = Stopped-flow response to addition and removal of I^-; format: physicochemical
[7] = In vitro fluorescence quenching by Cl^- (Stern-Volmer); format: physicochemical; details: in water (or saline)
Experimental: Computations. In vitro fluorescence quenching studies were carried out at peak excitation and emission wavelengths. Microliter aliquots of the sodium salt of the quenching anion (1 M) were added to indicator solution in 5 mM sodium phosphate (pH 7.2, unless indicated otherwise). Fluorescence intensities in the absence (Fo) and presence (F) of quencher anion ([Q]) were measured to give the Stem-Volmer constant (Kq) as defined by: Fo /F=1+Kq [Q].

[O-]c1nc2c(N[C@@H]3O[C@H](CO)[C@@H](O)[C@H]3O)ncnc2[n+]2ccccc12 [I, 4-(β-D-ribofuranosylamino)-pyrido [2,1-h] pteridin-11-ium-5-olate]
Cellular properties: photobleaching ([1]; Table 4): slow | photobleaching, intermittent vs. continuous illumination ([1]; low light level conditions): absence of photobleaching | toxicity to cells (cell growth) [2]: non-toxic | quenching by intracellular components [3]: quenched little by intracellular components | fluorescence lifetime in cells ([3]; in the absence of I^-, n=4): 6.5±0.3 ns | intracellular Stern-Volmer constant, quenching by I^- ([4]; high [K^+] and ionophores): 26 M⁻¹ | cellular fluorescence response to I^- ([4]; repeated addition and removal of 50 mM I^-): large, reversible changes in fluorescence | fluorescence lifetime ([5]; in water, absence of I^-): 7.1 ns | quenching mechanism (lifetime decrease with [I^-]) ([5]; increasing [I^-]): collisional mechanism | response time to rapid addition and removal of I^- [6]: < 1 ms | Stern-Volmer constant, Cl^- [7]: < 1 M⁻¹
